Test results published in patent US8569301B2, “6, 6-dioxo-6-thia-1, 4-diaza-naphthalenes as herbicides” (Syngenta Limited, priority 2009, dated 2013).

Experiments:
Assay type in all cases: in vivo
SETFA = test: Example B1 herbicidal action post-emergence, SETFA; conditions: sprayed after 8 days cultivation, evaluated after 13 days, scores from 10 to 0 (10=total damage to plant; 0=no damage to plant)
Procedure: (§1) Seeds of a variety of test species were sown in standard soil in pots. After 8 days cultivation (post-emergence) under controlled conditions in a glasshouse (at 24/16° C., day/night; 14 hours light; 65% humidity), the plants were sprayed with an aqueous spray solution derived from the formulation of the technical active ingredient in acetone/water (50:50) solution containing 0.5% Tween 20 (polyoxyethelyene sorbitan monolaurate, CAS RN 9005-64-5). The test plants were then grown under controlled conditions in a glasshouse (at 24/16° C., day/night; 14 hours light; 65% humidity) and watered twice daily. After 13 days, the test was evaluated and the assessed scores, from 10 to 0, are tabulated in Table B1 (10=total damage to plant; 0=no damage to plant).

ECHCG = test: Example B1 herbicidal action post-emergence, ECHCG; conditions: sprayed after 8 days cultivation, evaluated after 13 days, scores from 10 to 0 (10=total damage to plant; 0=no damage to plant)
Procedure: as §1

AMARE = test: Example B1 herbicidal action post-emergence, AMARE; conditions: sprayed after 8 days cultivation, evaluated after 13 days, scores from 10 to 0 (10=total damage to plant; 0=no damage to plant)
Procedure: as §1

IPOHE = test: Example B1 herbicidal action post-emergence, IPOHE; conditions: sprayed after 8 days cultivation, evaluated after 13 days, scores from 10 to 0 (10=total damage to plant; 0=no damage to plant)
Procedure: as §1

SOLNI = test: Example B1 herbicidal action post-emergence, SOLNI; conditions: sprayed after 8 days cultivation, evaluated after 13 days, scores from 10 to 0 (10=total damage to plant; 0=no damage to plant)
Procedure: as §1

[1] = tested on: crop and representative weed species; test: Example B2 herbicidal action post-emergence (Table B2); conditions: application post-emergence, rate 500 g/ha, evaluated after 15 days, score 10 to 0; for herbicidal damage score AMARE (10=total damage to plant; 0=no damage to plant): AMARE = Amaranthus retroflexus; for herbicidal damage score ECHCG (10=total damage to plant; 0=no damage to plant): ECHCG = Echinochloa crus-galli; for herbicidal damage score IPOHE (10=total damage to plant; 0=no damage to plant): IPOHE = Ipomea hederaceae; for herbicidal damage score SETFA (10=total damage to plant; 0=no damage to plant): SETFA = Setaria faberi
Procedure: Seeds of crop and representative weed species were sown in standard soil in pots. After cultivation for 14 days under controlled conditions in a glasshouse (at 22/16° C., day/night; 16 hours light; 65% humidity), the plants were sprayed. The spray solution was prepared by dissolving the technical active ingredient in acetone containing 10.56 wt % Emulsogen EL, 42.22 wt % N-methylpyrrolidone and 2.22 wt % DPG-monoethyl ether to give a 5% stock solution. This was then diluted with water containing 0.2% (v/v) of the adjuvant X-77 to give the desired treatment concentration.
The test plants were then grown on under controlled conditions in a glasshouse (at 22/16° C., day/night; 16 hours light; 65% humidity) and watered twice daily. After 15 days the test was evaluated and the assessed scores, from 10 to 0, are tabulated in Table B2 (10=total damage to plant; 0=no damage to plant).

Row | Structure (SMILES) | assessed score, application post-emergence, SETFA (SETFA; Rate 1000 g/ha) | assessed score, application post-emergence, ECHCG (ECHCG; Rate 1000 g/ha) | assessed score, application post-emergence, AMARE (AMARE; Rate 1000 g/ha) | assessed score, application post-emergence, IPOHE (IPOHE; Rate 1000 g/ha) | assessed score, application post-emergence, SOLNI (SOLNI; Rate 1000 g/ha) | herbicidal damage score AMARE (10=total damage to plant; 0=no damage to plant) [1] | herbicidal damage score ECHCG (10=total damage to plant; 0=no damage to plant) [1] | herbicidal damage score IPOHE (10=total damage to plant; 0=no damage to plant) [1] | herbicidal damage score SETFA (10=total damage to plant; 0=no damage to plant) [1] | assessed score, application post-emergence, SETFA (SETFA; Rate 250 g/ha) | assessed score, application post-emergence, ECHCG (ECHCG; Rate 250 g/ha) | assessed score, application post-emergence, AMARE (AMARE; Rate 250 g/ha) | assessed score, application post-emergence, IPOHE (IPOHE; Rate 250 g/ha) | assessed score, application post-emergence, SOLNI (SOLNI; Rate 250 g/ha)
1 | CCc1cc(-c2ccc(Cl)cc2Cl)ccc1C1=C(O)c2nccnc2CS1(=O)=O [Compound C24] | 10 | 7 | 10 | 3 | 6 | – | – | – | – | – | – | – | – | –
2 | CCC1c2nccnc2C(O)=C(c2c(Cl)cccc2C(F)(F)F)S1(=O)=O (stereo not shown) [Compound E1, 7-(2-chloro-6-trifluoromethyl-phenyl)-5-ethyl-6,6-dioxo-5,6-dihydro-6-thia-1,4-diaza-naphthalen-8-ol] | 8 | 7 | 9 | 7 | 9 | – | – | – | – | – | – | – | – | –
3 | C#CCC1c2nccnc2C(O)=C(c2c(F)ccc(Br)c2Cl)S1(=O)=O (stereo not shown) [Compound E8] | – | – | – | – | – | 8 | 6 | 9 | 6 | – | – | – | – | –
4 | O=S1(=O)C(c2c(F)ccc(Br)c2Cl)=C(O)c2nccnc2C1CC(F)F (stereo not shown) [Compound E9] | 5 | 3 | 10 | 8 | 9 | – | – | – | – | – | – | – | – | –
5 | CCC1c2nccnc2C(O)=C(c2c(F)ccc(Br)c2Cl)S1(=O)=O (stereo not shown) [Compound E10] | – | – | – | – | – | – | – | – | – | 7 | 4 | 7 | 8 | 7
6 | CC1c2nccnc2C(O)=C(c2c(F)ccc(Br)c2Cl)S1(=O)=O (stereo not shown) [Compound E11] | 8 | 8 | 8 | 9 | 10 | – | – | – | – | – | – | – | – | –
7 | CCC1c2nccnc2C(O)=C(c2ccc(Br)cc2C(F)(F)F)S1(=O)=O (stereo not shown) [Compound E14] | 6 | 7 | 9 | 7 | 10 | – | – | – | – | – | – | – | – | –
8 | C#CCC1c2nccnc2C(O)=C(c2c(C)cc(C)cc2C)S1(=O)=O (stereo not shown) [Compound E16] | 2 | 2 | 5 | 5 | 8 | – | – | – | – | – | – | – | – | –
9 | Cc1cc(C)c(C2=C(O)c3nccnc3C(CC(F)F)S2(=O)=O)c(C)c1 (stereo not shown) [Compound E17] | 10 | 10 | 10 | 7 | 7 | – | – | – | – | – | – | – | – | –
10 | Cc1cc(C)c(C2=C(O)c3nccnc3C(C)S2(=O)=O)c(C)c1 (stereo not shown) [Compound E19] | 5 | 5 | 3 | 7 | 8 | – | – | – | – | – | – | – | – | –
11 | C=CCC1c2nccnc2C(O)=C(c2c(F)ccc(Br)c2Cl)S1(=O)=O (stereo not shown) [Compound E20] | – | – | – | – | – | 7 | 2 | 7 | 4 | – | – | – | – | –
12 | CC#CCC1c2nccnc2C(O)=C(c2c(F)ccc(Br)c2Cl)S1(=O)=O (stereo not shown) [Compound E21] | 4 | 7 | 6 | 8 | 9 | – | – | – | – | – | – | – | – | –
13 | O=S1(=O)C(c2c(F)ccc(Br)c2Cl)=C(O)c2nccnc2C1Cc1ccccc1 (stereo not shown) [Compound E23] | 4 | 8 | 6 | 6 | 8 | – | – | – | – | – | – | – | – | –
14 | O=S1(=O)C(c2c(F)ccc(Br)c2Cl)=C(O)c2nccnc2C1Cc1ccc(Cl)s1 (stereo not shown) [Compound E24] | 0 | 0 | 6 | 5 | 7 | – | – | – | – | – | – | – | – | –
15 | Cc1cc(C)c(C2=C(O)c3nccnc3C(C)(C)S2(=O)=O)c(C)c1 [Compound F1, 5,5-dimethyl-6,6-dioxo-7-(2,4,6-trimethyl-phenyl)-5,6-dihydro-6-thia-1,4-diaza-naphthalen-8-ol] | 8 | 8 | 10 | 8 | 10 | – | – | – | – | – | – | – | – | –
16 | CC1(C)c2nccnc2C(O)=C(c2c(F)ccc(Br)c2Cl)S1(=O)=O [Compound F2] | 9 | 8 | 10 | 9 | 10 | – | – | – | – | – | – | – | – | –
17 | O=S1(=O)C(c2c(Cl)cccc2C(F)(F)F)=C(O)c2nccnc2C12CC2 [Compound F4] | 8 | 6 | 9 | 7 | 9 | – | – | – | – | – | – | – | – | –
18 | CC1(C)c2nccnc2C(O)=C(c2cc(Cl)ccc2C(F)(F)F)S1(=O)=O [Compound F5] | 6 | 8 | 10 | 9 | 10 | – | – | – | – | – | – | – | – | –
19 | CC1(C)c2nccnc2C(O)=C(c2ccc(Br)cc2C(F)(F)F)S1(=O)=O [Compound F6] | – | – | – | – | – | – | – | – | – | 8 | 9 | 9 | 8 | 9
20 | O=S1(=O)C(c2c(F)ccc(Br)c2Cl)=C(O)c2nccnc2C12CCC2 [Compound F7] | 1 | 1 | 4 | 6 | 5 | – | – | – | – | – | – | – | – | –
21 | CC1(C)c2nccnc2C(O)=C(c2c(Cl)cccc2C(F)(F)F)S1(=O)=O [Compound F9] | 8 | 8 | 9 | 9 | 8 | – | – | – | – | – | – | – | – | –
22 | O=S1(=O)C(c2cc(Cl)ccc2C(F)(F)F)=C(O)c2nccnc2C12CC2 [Compound F11, 7-(5-chloro-2-trifluoromethyl-phenyl)-5,5-cyclopropyl-6,6-dioxo-5,6-dihydro-6-thia-1,4-diaza-naphthalen-8-ol] | 2 | 3 | 6 | 7 | 7 | – | – | – | – | – | – | – | – | –
23 | CCOCOC1=C(c2cc(Cl)ccc2C(F)(F)F)S(=O)(=O)Cc2nccnc21 [Compound X1, 7-(5-chloro-2-trifluoromethyl-phenyl)-8-ethoxymethoxy-5H-6-thia-1,4-diaza-naphthalene 6,6-dioxide] | 6 | 2 | 6 | 7 | 8 | – | – | – | – | – | – | – | – | –
24 | CC(C)C(=O)OC1=C(c2c(F)ccc(Br)c2Cl)S(=O)(=O)Cc2nccnc21 [Compound X2, isobutyric acid 7-(3-bromo-2-chloro-6-fluoro-phenyl)-6,6-dioxo-5,6-dihydro-6-thia-1,4-diaza-naphthalen-8-yl ester] | 8 | 8 | 10 | 8 | 10 | – | – | – | – | – | – | – | – | –
